# Values of other authors as cited in patent US9145400B2, “Process for the preparation of form III of vilazodone hydrochloride” (Sandoz AG, priority 2013, dated 2015).
# Like-named read-outs stand apart in the source and are kept apart here.
# Assays:
# [1] = at room temperature
# [2] = DVS, humidity of about 90%; takes up water only in minimal amounts; per WO 02/102794
smiles,measurement,setting,value
"Cl.N#Cc1ccc2[nH]cc(CCCCN3CCN(c4ccc5oc(C(N)=O)cc5c4)CC3)c2c1 [form III of Vilazodone hydrochloride, 5-(4-[4-(5-cyano-1H-indol-3-yl)butyl]piperazin-1-yl)benzofuran-2-carboxamide hydrochloride]",thermodynamic stability among polymorphs,"[1]; per WO 02/102794 page 20, lines 23-26 and FIG. 27, listed as Vilazodone hydrochloride crystalline form III",thermodynamically most stable form
same,thermodynamic stability among polymorphs,"[1]; per WO 02/102794 page 20, lines 23-26 and FIG. 27, hydrochloride",most thermodynamically stable polymorph
same,hygroscopicity (water uptake),[2],non-hygroscopic
